Assay results reported in article PMC8084100, “Bypassing the requirement for aminoacyl-tRNA by a cyclodipeptide synthase enzyme” (RSC Chemical Biology, 2021).

Assays:
BtCDPS [1] = biological target: T1, BtCDPS (Caldibacillus thermoamylovorans, UniProt A0A090KS30); experiment: LC-MS of cyclic dipeptide product; type: biochemical; conditions: 50 mM HEPES pH 7.5, 500 mM NaCl, 5 mM DTT, 1 mM substrate, 20 °C, 24 h
T1 construct: gene yvmC; full length (residues 1-232), codon-optimised synthetic gene, TEV-cleavable His6 tag cut, E. coli BL21(DE3), monomer
T1 sequence (A0A090KS30 1-231): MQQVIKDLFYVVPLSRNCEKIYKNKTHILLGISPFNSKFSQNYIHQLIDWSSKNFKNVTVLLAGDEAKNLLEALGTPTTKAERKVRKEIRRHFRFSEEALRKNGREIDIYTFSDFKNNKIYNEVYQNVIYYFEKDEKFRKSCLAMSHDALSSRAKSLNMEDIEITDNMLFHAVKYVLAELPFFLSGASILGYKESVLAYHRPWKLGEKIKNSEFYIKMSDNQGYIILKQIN

BtCDPS [2] = biological target: T1, BtCDPS; experiment: LC-HRMS of cLL product; HPLC of DBE-OH; intact protein MS of acyl-enzyme; type: biochemical; conditions: 50 mM HEPES pH 7.5, 500 mM NaCl, 5 mM DTT, 500 uM substrate, room temperature; covalent (leucyl-enzyme intermediate at S33)

Row | SMILES | LC-MS of cyclic dipeptide product (BtCDPS [1]) | LC-HRMS of cLL product; HPLC of DBE-OH; intact protein MS of acyl-enzyme (BtCDPS [2])
1 | CC[C@H](C)[C@H](N)C(=O)OCc1cc([N+](=O)[O-])cc([N+](=O)[O-])c1 [Ile-DBE] | Ile-DBE and Met-DBE were also substrates for BtCDPS | 
2 | CC(C)C[C@H](N)C(=O)OCc1cc([N+](=O)[O-])cc([N+](=O)[O-])c1 [Leu-DBE] |  | a cyclic dipeptide (cLL) is generated by CDPS when Leu-DBE was used as a substrate
3 | CSCC[C@H](N)C(=O)OCc1cc([N+](=O)[O-])cc([N+](=O)[O-])c1 [Met-DBE] | Ile-DBE and Met-DBE were also substrates for BtCDPS | 
